Measurements from US11584747B2, “Substituted pyridopyrimidinonyl compounds useful as T cell activators” (BRISTOL-MYERS SQUIBB COMPANY, priority 2019, dated 2023).

What was measured:
human DGKζ = human DGKζ (Homo sapiens (Human), UniProt Q13574); experiment: DGKζ LIPGLO assay (extruded liposome substrate, ADP-Glo luminescence); assay type: biochemical; settings: liposome (LIPGLO) assay; read-out: DGK zeta (liposome assay) IC50
whole blood (pERK) = experiment: pERK Whole Blood; assay type: cell-based
human DGKα = human DGKα (Homo sapiens (Human), UniProt P23743); experiment: DGKα ADPGLO assay (detergent/lipid micelle substrate); assay type: biochemical; settings: ADPGLO assay; read-out: DGK alpha ADPGLO IC50
Experimental: DGK Alpha ADPGLO (Truncated) IC50 (uM)
The detergent/lipid micelle was prepared by combining 15 g phosphatidylserine (Avanti 840035P) and 1 g diacylglycerol (8008110) and dissolving into 150 mL chloroform in a 2 L round bottom flask. Chloroform was removed under high vacuum by rotary evaporation. […] The lipid/detergent solution was split into 5 mL aliquots and stored at −80° C.

[1] = test system: human venous whole blood (IFN-γ); experiment: Human whole blood IFN-γ assay; assay type: cell-based; settings: human whole blood, anti-CD3 plus anti-CD28 stimulation, 24 hours; read-out: IFN-γ Whole Blood EC50
Experimental: Human venous whole blood (22.5 μL per well), obtained from healthy donors, was pre-treated with compounds for one hour at 37° C. in a humidified 95% air/5% CO2 incubator. The blood was stimulated with 2.5 μL anti-human CD3 and anti-CD28 mAb at a final concentration of 1 μg/mL each for 24 hours at 37° C. IFN-γ in the supernatants was measured using AlphLISA kit (Cat #AL217).

human DGKζ, sequence (Q13574 other isoform, or with tags, fused parts or gaps): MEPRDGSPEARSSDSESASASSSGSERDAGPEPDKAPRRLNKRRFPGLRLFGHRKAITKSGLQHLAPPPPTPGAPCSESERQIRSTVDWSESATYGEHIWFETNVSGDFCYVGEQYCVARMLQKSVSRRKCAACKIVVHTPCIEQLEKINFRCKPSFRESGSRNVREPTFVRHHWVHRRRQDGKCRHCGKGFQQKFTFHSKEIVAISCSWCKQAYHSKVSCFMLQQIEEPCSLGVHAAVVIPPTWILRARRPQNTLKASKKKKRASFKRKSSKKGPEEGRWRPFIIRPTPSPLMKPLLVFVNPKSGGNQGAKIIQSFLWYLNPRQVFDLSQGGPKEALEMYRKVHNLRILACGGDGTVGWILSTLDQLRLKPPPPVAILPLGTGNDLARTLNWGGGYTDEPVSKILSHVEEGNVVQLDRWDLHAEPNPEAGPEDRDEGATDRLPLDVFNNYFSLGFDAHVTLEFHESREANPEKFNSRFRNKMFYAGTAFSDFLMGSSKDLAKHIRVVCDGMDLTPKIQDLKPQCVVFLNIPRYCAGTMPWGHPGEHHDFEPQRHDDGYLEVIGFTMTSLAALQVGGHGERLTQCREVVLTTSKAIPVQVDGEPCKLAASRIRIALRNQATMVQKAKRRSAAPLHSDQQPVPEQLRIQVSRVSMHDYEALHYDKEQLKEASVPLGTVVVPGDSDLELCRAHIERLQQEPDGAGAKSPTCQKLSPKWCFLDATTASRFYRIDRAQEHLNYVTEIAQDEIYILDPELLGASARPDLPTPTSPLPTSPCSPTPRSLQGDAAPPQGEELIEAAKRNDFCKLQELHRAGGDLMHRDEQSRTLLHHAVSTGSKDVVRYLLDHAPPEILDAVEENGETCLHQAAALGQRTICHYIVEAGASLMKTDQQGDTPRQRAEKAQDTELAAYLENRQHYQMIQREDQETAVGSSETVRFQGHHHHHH
human DGKα, sequence (P23743 whole entry, looked up, the tested form may be a part): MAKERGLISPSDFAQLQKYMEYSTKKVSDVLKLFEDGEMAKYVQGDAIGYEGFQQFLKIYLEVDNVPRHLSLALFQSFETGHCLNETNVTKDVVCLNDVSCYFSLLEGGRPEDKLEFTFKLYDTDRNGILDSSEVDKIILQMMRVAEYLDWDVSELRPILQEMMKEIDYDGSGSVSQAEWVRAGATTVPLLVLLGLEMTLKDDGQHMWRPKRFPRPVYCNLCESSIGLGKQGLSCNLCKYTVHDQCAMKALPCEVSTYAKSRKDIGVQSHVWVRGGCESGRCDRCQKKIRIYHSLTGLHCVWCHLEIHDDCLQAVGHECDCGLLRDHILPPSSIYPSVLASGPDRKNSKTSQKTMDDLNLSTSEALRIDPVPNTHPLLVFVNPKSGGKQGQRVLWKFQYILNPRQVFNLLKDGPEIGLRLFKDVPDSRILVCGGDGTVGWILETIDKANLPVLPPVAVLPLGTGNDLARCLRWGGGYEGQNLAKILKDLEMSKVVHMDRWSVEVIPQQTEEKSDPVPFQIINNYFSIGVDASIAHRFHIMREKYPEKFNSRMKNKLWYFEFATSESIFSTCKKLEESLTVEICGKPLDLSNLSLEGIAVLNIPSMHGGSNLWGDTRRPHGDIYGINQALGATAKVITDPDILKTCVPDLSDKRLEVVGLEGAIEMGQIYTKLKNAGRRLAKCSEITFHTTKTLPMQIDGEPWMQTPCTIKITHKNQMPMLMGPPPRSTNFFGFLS

Compound | IC50 (human DGKζ) [nM] | EC50 (whole blood (pERK)) [µM] | IC50 (human DGKα) [nM] | EC50 [1] [µM]
CCC(N1C[C@H](C)N(c2nc(=O)n(C)c3ccc(C#N)nc23)C[C@H]1C)C12CC(C(F)(F)F)(C1)C2 (stereo partly drawn) [Example 447, 4-((2S,5R)-2,5-dimethyl-4-(1-(3-(trifluoromethyl)bicyclo[1.1.1]pentan-1-yl)propyl)piperazin-1-yl)-1-methyl-2-oxo-1,2-dihydropyrido[3,2-d]pyrimidine-6-carbonitrile] | 5570 | 20 | 13600 | 
CCC(c1ccc(C(C)(C)C#N)cc1)N1C[C@H](C)N(c2nc(=O)n(C)c3ccc(C#N)nc23)C[C@H]1CC (stereo partly drawn) [Example 317, 4-((2S,5R)-4-(1-(4-(2-cyanopropan-2-yl)phenyl)propyl)-5-ethyl-2-methylpiperazin-1-yl)-1-methyl-2-oxo-1,2-dihydropyrido[3,2-d]pyrimidine-6-carbonitrile] | 26 | 0.18 | 17 | 
CC[C@@H]1CN(c2nc(=O)[nH]c3ccc(C#N)nc23)[C@@H](C)CN1C(C)c1ccc(C(F)(F)F)cc1 (single isomer, unassigned) [Example 414] | 11300 | 0.16 | 1490 | 
CC[C@@H]1CN(c2nc(=O)n(C)c3ccc(C#N)nc23)[C@@H](C)CN1C(C)c1ccc(C2CCOCC2)cc1 (stereo partly drawn) [Example 330, 4-((2 S,5R)-5-ethyl-2-methyl-4-(1-(4-(tetrahydro-2H-pyran-4-yl)phenyl)ethyl)piperazin-1-yl)-1-methyl-2-oxo-1,2-dihydropyrido[3,2-d]pyrimidine-6-carbonitrile] | 2830 | 11 | 640 | 
CCC(c1ccc(OCCC2CC2)cc1)N1C[C@H](C)N(c2nc(=O)n(C)c3ccc(C#N)nc23)C[C@H]1CC (stereo partly drawn) [Example 340, 4-((2S,5R)-4-(1-(4-(2-cyclopropylethoxy)phenyl)propyl)-5-ethyl-2-methylpiperazin-1-yl)-1-methyl-2-oxo-1,2-dihydropyrido[3,2-d]pyrimidine-6-carbonitrile] | 15900 | 12.9 | 6310 | 
CC[C@H]1CN(C(C)c2ccc(C(F)(F)F)cc2)[C@H](CC)CN1c1nc(=O)n(C)c2ccc(OC(F)F)nc12 (stereo partly drawn) [Example 445, 4-((2S,5R)-2,5-Diethyl-4-(1-(4-(trifluoromethyl)phenyl)ethyl)piperazin-1-yl)-6-(difluoromethoxy)-1-methylpyrido[3,2-d]pyrimidin-2(1H)-one] | 2210 | 9.59 | 950 | 
CCC(c1ccc(C2OCCO2)cc1)N1C[C@H](C)N(c2nc(=O)n(C)c3ccc(C#N)nc23)C[C@H]1CC (stereo partly drawn) [Example 331, 4-((2S,5R)-4-(1-(4-(1,3-dioxolan-2-yl)phenyl)propyl)-5-ethyl-2-methylpiperazin-1-yl)-1-methyl-2-oxo-1,2-dihydropyrido[3,2-d]pyrimidine-6-carbonitrile] | 33 | 0.94 | 38 | 
CCC(c1ccc(OCC2(C)CC2)cc1)N1C[C@H](C)N(c2nc(=O)n(C)c3ccc(C#N)nc23)C[C@H]1CC (stereo partly drawn) [Example 346, 4-((2S,5R)-5-ethyl-2-methyl-4-(1-(4-((1-methylcyclopropyl)methoxy)phenyl)propyl)piperazin-1-yl)-1-methyl-2-oxo-1,2-dihydropyrido[3,2-d]pyrimidine-6-carbonitrile] | 1240 | 0.19 | 1280 | 
CC[C@@H]1CN(c2nc(=O)n(C)c3ccc(C#N)nc23)[C@@H](C)CN1C(C)c1ccc(C(F)(F)F)c(CN2CCCCC2)c1 (stereo partly drawn) [Example 354, 4-((2S,5R)-5-ethyl-2-methyl-4-(1-(3-(piperidin-1-ylmethyl)-4-(trifluoromethyl)phenyl)ethyl)piperazin-1-yl)-1-methyl-2-oxo-1,2-dihydropyrido[3,2-d]pyrimidine-6-carbonitrile] | 650 | 7.95 |  | 
CC[C@@H]1CN(c2nc(=O)n(C)c3ccc(C#N)nc23)[C@@H](C)CN1C(C)c1ccc(C2(C#N)CC2)cc1 (stereo partly drawn) [Example 325, 4-((2S,5R)-4-(1-(4-(1-cyanocyclopropyl)phenyl)ethyl)-5-ethyl-2-methylpiperazin-1-yl)-1-methyl-2-oxo-1,2-dihydropyrido[3,2-d]pyrimidine-6-carbonitrile] | 69 | 0.07 | 800 | 
CCC(c1ccc(OCCC(F)(F)F)cc1)N1C[C@H](C)N(c2nc(=O)n(C)c3ccc(C#N)nc23)C[C@H]1CC (single isomer, unassigned) [Example 335] | 120 | 0.14 | 25 | 
CC[C@H]1CN(C(C)c2ccc(C(F)(F)F)cc2)[C@H](CC)CN1c1nc(=O)n(C)c2ccc(OCCOC)nc12 (stereo partly drawn) [Example 434, 4-((2S,5R)-2,5-diethyl-4-(1-(4-(trifluoromethyl)phenyl)ethyl)piperazin-1-yl)-6-(2-methoxyethoxy)-1-methylpyrido[3,2-d]pyrimidin-2(1H)-one] |  | 20 |  | 
CCC(c1ccc(OCC2CN(C)C2)cc1)N1C[C@H](C)N(c2nc(=O)n(C)c3ccc(C#N)nc23)C[C@H]1CC (stereo partly shown) [Example 344, 4-((2 S, 5R)-5-ethyl-2-methyl-4-(1-(4-((1-methylazetidin-3-yl)methoxy)phenyl)propyl)piperazin-1-yl)-1-methyl-2-oxo-1,2-dihydropyrido[3,2-d]pyrimidine-6-carbonitrile] | 17100 | 20 | 10100 | 
CC[C@H]1CN(C(C)c2ccc(C(F)(F)F)cc2)[C@H](CC)CN1c1nc(=O)n(C)c2ccc(C(F)F)nc12 (stereo partly drawn) [Example 439, 4-((2S,5R)-2,5-Diethyl-4-(1-(4-(trifluoromethyl)phenyl)ethyl)piperazin-1-yl)-6-(difluoromethyl)-1-methylpyrido[3,2-d]pyrimidin-2(1H)-one] | 400 | 10.9 | 360 | 
CC[C@@H]1CN(c2nc(=O)n(C)c3ccc(C#N)nc23)[C@@H](C)CN1C(c1ccc(F)cc1)c1cccc(C(F)F)n1 (stereo partly drawn) [Example 315, 4-((2 S,5R)-4-((6-(difluoromethyl)pyridin-2-yl)(4-fluorophenyl)methyl)-5-ethyl-2-methylpiperazin-1-yl)-1-methyl-2-oxo-1,2-dihydropyrido[3,2-d]pyrimidine-6-carbonitrile] | 190 | 0.27 | 26 | 
CC[C@H]1CN(C(C)c2ccc(C(F)(F)F)cc2)[C@H](CC)CN1c1nc(=O)n(C)c2ccc(C(F)F)nc12 (stereo partly drawn) [Example 440, 4-((2S,5R)-2,5-Diethyl-4-(1-(4-(trifluoromethyl)phenyl)ethyl)piperazin-1-yl)-6-(difluoromethyl)-1-methylpyrido[3,2-d]pyrimidin-2(1H)-one] | 44600 | 8.07 | 1140 | 
CCOC[C@@H]1CN(c2nc(=O)n(C)c3ccc(C#N)nc23)[C@@H](C)CN1C(CC)c1ccc(C(F)(F)F)cc1 (stereo partly drawn) [Example 401, 4-((2S,5S)-5-(ethoxymethyl)-2-methyl-4-(1-(4-(trifluoromethyl)phenyl)propyl)piperazin-1-yl)-1-methyl-2-oxo-1,2-dihydropyrido[3,2-d]pyrimidine-6-carbonitrile] | 230 | 4.89 | 160 | 
CCOc1ccc2c(n1)c(N1C[C@@H](CC)N(C(C)c3ccc(C(F)(F)F)cc3)C[C@@H]1CC)nc(=O)n2C (stereo partly drawn) [Example 430, 4-((2S,5R)-2,5-diethyl-4-(1-(4-(trifluoromethyl)phenyl)ethyl)piperazin-1-yl)-6-ethoxy-1-methylpyrido[3,2-d]pyrimidin-2(1H)-one] | 125000 | 20 |  | 20
CC[C@@H]1CN(c2nc(=O)n(C)c3ccc(C#N)nc23)[C@@H](C)CN1C(C)c1ccc(C(F)(F)F)c(CN2CCCCC2)c1 (stereo partly drawn) [Example 355, 4-((2S,5R)-5-ethyl-2-methyl-4-(1-(3-(piperidin-1-ylmethyl)-4-(trifluoromethyl)phenyl)ethyl)piperazin-1-yl)-1-methyl-2-oxo-1,2-dihydropyrido[3,2-d]pyrimidine-6-carbonitrile] | 41700 | 6.69 |  | 
CC[C@@H]1CN(c2nc(=O)n(C)c3ccc(C#N)nc23)[C@@H](C)CN1C(C)c1ccc(C2(C#N)CC2)cc1 (stereo partly drawn) [Example 326, 4-((2S,5R)-4-(1-(4-(1-cyanocyclopropyl)phenyl)ethyl)-5-ethyl-2-methylpiperazin-1-yl)-1-methyl-2-oxo-1,2-dihydropyrido[3,2-d]pyrimidine-6-carbonitrile] |  | 3.48 |  | 
CCC[C@@H]1CN(c2nc(=O)n(C)c3ccc(C#N)nc23)[C@@H](C)CN1C(C)c1ccc(C(F)(F)F)cc1 (single isomer, unassigned) [Example 395] |  | 20 | 490 | 
C[C@@H]1CN(c2nc(=O)n(C)c3ccc(C#N)nc23)[C@@H](C)CN1C(c1ccc(F)cc1)C12CC(C(F)(F)F)(C1)C2 (stereo partly drawn) [Example 452, 4-((2S,5R)-4-((4-fluorophenyl)(3-(trifluoromethyl)bicyclo[1.1.1]pentan-1-yl)methyl)-2,5-dimethylpiperazin-1-yl)-1-methyl-2-oxo-1,2-dihydropyrido[3,2-d]pyrimidine-6-carbonitrile] |  | 20 |  | 
C[C@@H]1CN(c2nc(=O)n(C)c3ccc(C#N)nc23)[C@@H](C)CN1C(c1ccc(F)cc1)C12CC(C(F)(F)F)(C1)C2 (stereo partly drawn) [Example 451, 4-((2S,5R)-4-((4-fluorophenyl)(3-(trifluoromethyl)bicyclo[1.1.1]pentan-1-yl)methyl)-2,5-dimethylpiperazin-1-yl)-1-methyl-2-oxo-1,2-dihydropyrido[3,2-d]pyrimidine-6-carbonitrile] |  | 20 |  | 
